Data published in paper PMC9568543, “Bee-safe peptidomimetic acaricides achieved by comparative genomics” (Scientific Reports, 2022).
Where a SMILES comes first, the peptide text is derived from it. Where no end group is shown, it is not given here. [ ]: non-standard residue; d: D form. Oic = O=C(O)[C@@H]1C[C@@H]2CCCC[C@@H]2N1

Legend:
[1] = biological target: Varroa mite proctolin receptor (VdProctR) (Varroa destructor, UniProt A0A7T1TE40); assay: Receptor activity assay (aequorin luminescence), CHO cells transiently expressing the receptor, first set of ligands; assay type: cell-based; conditions: activities at 1 μM and 10 μM
Method: (§1) Approximately thirty hours after transfection, the cells were collected and preincubated with coelenterazine h for the functional assay, as previously described[30],[31],[52]. The ligands in serial dilutions were loaded into 96-well opaque plates. Cells treated with coelenterazine h were injected into each well on an Orion microplate luminometer (Berthold) luminescent plate reader. The luminescence was measured for 20 s immediately after the cell injections. Data analyses were performed to determine the accumulated luminescence value for 20 s after extraction of blank-well luminescence. […] The three biological replications were regressed for the dose–response curves with 95% confidence intervals (Table 1). For the tests of the second set of ligands, we used the cell line that stably expressed VdProctR, which were selected by Zeocin for 5 passages.

Varroa mites = assay: Varroa mite feeding assay (drop on gnathosoma), paralysis/death; assay type: in vivo, Varroa destructor; conditions: 48 h; 200 nL on gnathosoma; 0.1 nM (methods) / 0.01 nM (Fig. 4 legend)
Method: In the continued bioassay, the toxicities were assessed by counting paralysis/death in feeding assay. A drop of 200 nL solution was placed on the gnathosoma of an immobilized mite for forced feedings of active components. Low levels of acute toxicities of peptidomimetics were indicated by lower than 50% effects within 6 h after the treatments. The toxic effects were increased over time and reached 100% of the effects in the 48 h treatments of 2336 (Fig. 4, ANOVA p < 0.05). In H2O control, about 10% or less of the number of individuals were paralyzed/dead. Accurate cause of the paralysis/death remains yet to be studied.
Adult female Varroa mites were collected using a sugar roll method from honey bee hives located at the East Campus apiary of the University of Nebraska (Lincoln, NE USA) in September–October 2019. The hives were not treated with chemicals for honey bee parasites or pathogens. The mites were sorted in the laboratory with a paint brush and tested within 4 h post collection. […] The number of affected (i.e., dead and/paralyzed) was observed and recorded at 1, 2, 6, 12, 24, and 48 h. The percent effect for each treatment was analyzed using a one-way analysis of variance (ANOVA) with a Tukey’s post-hoc test (GraphPad Prism, La Jolla, CA; p < 0.05).

CHO cells, empty vector = assay: Negative control, CHO cells transfected with the empty vector; assay type: cell-based, Chinese hamster; conditions: 10 µM
Method: The receptor was also tested with a variety of peptide analogs and peptidomimetics.
Approximately thirty hours after transfection, the cells were collected and preincubated with coelenterazine h for the functional assay, as previously described[30],[31],[52]. The ligands in serial dilutions were loaded into 96-well opaque plates. Cells treated with coelenterazine h were injected into each well on an Orion microplate luminometer (Berthold) luminescent plate reader. The luminescence was measured for 20 s immediately after the cell injections. Data analyses were performed to determine the accumulated luminescence value for 20 s after extraction of blank-well luminescence. A dose–response curve was generated and the EC50 (50% effective concentration) was calculated in Origin 7 (OriginLab) as described in Jiang et al.[31],[53]. The three biological replications were regressed for the dose–response curves with 95% confidence intervals (Table 1). For the tests of the second set of ligands, we used the cell line that stably expressed VdProctR, which were selected by Zeocin for 5 passages.

[2] = tested on: honey bee FMRFamide receptor; assay: Activity on honey bee FMRFamide receptor expressed in CHO cells; assay type: cell-based, Apis mellifera
Method: as §1, with “Honey bee FMRFamide receptor was cloned and expressed in the same system as described for the proctolin receptor. […] Approximately” for “Approximately”, “dose-response” for “dose–response”

Bombyx mori larval gut = conditions: cited from earlier work
honey bee queen = conditions: injection, 1 µL containing 1 µg; cited from earlier work

Varroa mite proctolin receptor (VdProctR), sequence (A0A7T1TE40 entry or part of it): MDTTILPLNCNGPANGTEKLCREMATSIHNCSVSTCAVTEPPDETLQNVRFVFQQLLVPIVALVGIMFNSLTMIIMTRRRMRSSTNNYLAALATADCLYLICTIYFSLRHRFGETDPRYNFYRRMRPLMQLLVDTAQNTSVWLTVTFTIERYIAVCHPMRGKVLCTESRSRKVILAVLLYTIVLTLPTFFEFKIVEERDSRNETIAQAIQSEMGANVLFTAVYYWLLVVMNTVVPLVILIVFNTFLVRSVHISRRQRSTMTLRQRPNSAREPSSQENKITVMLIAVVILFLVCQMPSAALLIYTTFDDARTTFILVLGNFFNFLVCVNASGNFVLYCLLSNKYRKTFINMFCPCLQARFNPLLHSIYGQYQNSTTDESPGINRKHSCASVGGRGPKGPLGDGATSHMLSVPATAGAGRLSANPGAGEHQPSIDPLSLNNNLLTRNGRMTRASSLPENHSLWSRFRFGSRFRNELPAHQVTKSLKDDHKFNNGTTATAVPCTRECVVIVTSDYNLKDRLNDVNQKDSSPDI

CC(C)C[C@H](NC(=O)[C@H](Cc1ccc(O)cc1)NC(=O)[C@@H](N)CCCNC(=N)N)C(=O)N1[C@H](C(=O)N[C@H](C(=O)O)[C@@H](C)O)C[C@@H]2CCCC[C@@H]21 [Analog 2336, RYL[Oic]T] (H-RYL[Oic]T-OH; N-terminus and C-terminus assumed)
efficacy (maximal response) compared with proctolin [1]: higher than that of proctolin | effects (paralyzed or dead mites) (Varroa mites): 100%

RYLPT [Proctolin, RYLPT]
activity on empty-vector transfected cells (CHO cells, empty vector): did not show any activity | activity on honey bee FMRFamide receptor [2]: no activities | concentration required for hindgut contraction (Bombyx mori larval gut; Bombyx mori larval hindgut): 180 µM | concentration required in the midgut to slightly reduce leucine uptake (Bombyx mori larval gut; Bombyx mori larval midgut): 10 µM | effect on egg-laying activity of the queen (honey bee queen): increased the egg-laying activity
